Reference: ChEMBL document CHEMBL5150054, “Pyrazole-containing pharmaceuticals: target, pharmacological activity, and their SAR studies” (RSC Med Chem, 2022)

Tests used:
[1] = target: cGMP-specific 3',5'-cyclic phosphodiesterase (Homo sapiens, UniProt O76074)
Description: Inhibition of PDE5 (unknown origin)

[2] = Inhibition of GABA receptor BZ domain (unknown origin); set-up: species or system Homo sapiens
[3] = Dissociation constant, pKa of compound; assay type: physicochemical
[4] = target: Plasma kallikrein (Homo sapiens, UniProt P03952); assay: Inhibition of plasma kallikrein (unknown origin)
Sequence of Plasma kallikrein (P03952 20-390 limits assumed): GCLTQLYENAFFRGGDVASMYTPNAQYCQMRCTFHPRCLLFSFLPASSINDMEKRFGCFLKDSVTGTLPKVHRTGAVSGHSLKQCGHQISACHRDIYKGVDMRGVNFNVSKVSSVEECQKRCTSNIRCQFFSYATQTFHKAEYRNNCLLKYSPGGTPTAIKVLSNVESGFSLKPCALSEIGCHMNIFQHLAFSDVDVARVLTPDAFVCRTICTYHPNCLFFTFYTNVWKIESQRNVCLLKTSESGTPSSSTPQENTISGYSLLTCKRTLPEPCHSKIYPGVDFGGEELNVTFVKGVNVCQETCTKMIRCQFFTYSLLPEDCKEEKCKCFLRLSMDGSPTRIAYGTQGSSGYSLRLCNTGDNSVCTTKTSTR
Sequence of Plasma kallikrein (P03952 391-638 limits assumed): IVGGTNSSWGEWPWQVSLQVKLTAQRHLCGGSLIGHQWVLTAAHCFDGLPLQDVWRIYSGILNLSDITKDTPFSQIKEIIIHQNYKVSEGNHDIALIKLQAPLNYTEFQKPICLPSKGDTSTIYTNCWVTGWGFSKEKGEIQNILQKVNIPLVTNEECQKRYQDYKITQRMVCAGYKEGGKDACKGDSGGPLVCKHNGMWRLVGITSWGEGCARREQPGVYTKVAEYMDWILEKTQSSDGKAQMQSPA

CCCOc1ccc(S(=O)(=O)NCCC2CCCN2C)cc1-c1nc2c(CCC)nn(C)c2c(=O)[nH]1 (stereo not given)
IC50 [1]: 8.25 nM

CCN(C(C)=O)c1cccc(-c2ccnc3c(C#N)cnn23)c1 [ZALEPLON]
IC50 [2]: 167 nM

CCCCc1nc(-c2ccccc2Cl)c(C(=O)O)n1Cc1ccc(-c2ccccc2-c2nn[nH]n2)cc1
pKa [3]: 2.5

CCCCc1nn(-c2ccccc2Cl)c(C(=O)O)c1Cc1ccc(-c2ccccc2-c2nn[nH]n2)cc1
pKa [3]: 7.1

N#Cc1cccc([C@@H](NCC2CC2)c2ccc(F)c(NC(=O)c3cc(C(F)(F)F)nn3-c3cccc(CN)c3)c2)c1 [BEROTRALSTAT]
IC50 [4]: 1 nM
